Experimental findings from patent publication US9877937B2, “Compounds and methods for treating aberrant adrenocortical cell disorders” (Millendo Therapeutics, Inc., priority 2012, dated 2018) are described below.

Structures can show the parent of a compound that is named as a salt. Where two headings read alike, the source gives them in different places.

The test system of one data set is ACTH-stimulated cortisol. Nature of the data set: Basal and ACTH-stimulated plasma cortisol levels in dogs. The format is in vivo. The procedure: […] 6 dogs/sex/dosage group were studied. […] Plasma cortisol concentrations (ng/ml) in male and female dogs were determined prior to ACTH stimulation and 0.5 and 1 hour after ACTH stimulation.
A short description of data set [1]: Tissue distribution of ATR-101 in rats. Conditions: for Kp at 7 days: rat, female rats, 100 mg/kg/day for 7 days, N=3. The format is in vivo. As for the experimental part:
(§1) Tissue distribution of ATR-101 in 3 rats and 3 dogs was examined. ATR-101 concentrations were measured in plasma, red blood cells, adrenal gland, liver, kidney, skeletal muscle, ovary, subcutaneous fat, and cerebral spinal fluid. […] ATR-101 concentrations in rats were higher in adrenal gland (˜2×) and ovary (˜1.4×) than in plasma. […] ATR-101 concentrations in dogs were similar in adrenal gland and plasma.

A further data set relates to H295R cells. Nature of the data set: ATP levels of H295R cells (CellTiter-Glo luminescence). The format is cell-based, human. As for the experimental part: To measure ATP levels and reducing potentials of H295R cells, these cells were cultured in 96-well flat bottom cell culture plates (BD Biosciences) plated at 50,000 cells in 100 μl. The cells were plated in DMEM media without glucose (GIBCO 11966)+10 mM galactose+5 mM sodium-HEPES+2 mM glutamine (addition)+1 mM sodium pyruvate+100 U/ml penicillin/streptomycin+either 0% or 5% fetal calf serum. After overnight (16-20 h) incubation, 20 μl of medium containing 5% fetal calf serum as well as the aliquots of ATR-101 required to produce the final concentrations were added to the cells. To measure ATP levels, 100 μl of the CellTiter-Glo® (Promega Corp., Madison, Wis.) reagent was added to lyse the cells at the indicated times, and luciferin luminescence was measured to determine the amount of ATP in the lysate. To measure reducing activity, PrestoBlue® Cell Viability reagent (Life Technologies Corp.) was added to the cells immediately after ATR-101. The cells were incubated at 37° C. with CO2, and resorufin fluorescence was measured at the times indicated.
To investigate the mechanism whereby ATR-101 kills cells in culture, the effects of cholesterol depletion on the ATP levels of H295R cells cultured in the presence of ATR-101 was investigated. The cells were cultured in the presence of methyl-β-cyclodextrin (MβCD), which can sequester cholesterol and thereby deplete free cholesterol in the cells. […] MβCD increased the concentration of ATR-101 required for half-maximal depletion of ATP levels more than 4-fold.
To determine if the effect of MβCD on ATR-101 cytotoxicity was due to cholesterol depletion, H295R cells were cultured in the presence of the equivalent amount of MβCD complexed with cholesterol (FIG. 12C). […] The protection of H295R cells from the cytotoxicity of ATR-101 by culture in the presence of MβCD was therefore due to cholesterol depletion in these cells.
A general note: ATP-based viability assays read luminescence as a measure of living cells.

For data set [2], the system named is cortisol produced by H295R cells xenografted into SCID mice. Nature of the data set: Urinary cortisol levels in mice with H295R xenotransplants (DetectX cortisol assay kit). Conditions: 700 then 300 mg/kg/day; from 22 days after cell injection. It is filed as in vivo. As for the experimental part: FIG. 8 depicts the urinary cortisol levels in mice with H295R xenotransplants treated with vehicle or ATR-101. Randomized cohorts of 10 mice injected with H295R cells were administered 700 mg/kg/day ATR-101 for 4 days followed by 300 mg/kg/day ATR-101 or vehicle by gavage beginning 14 days after cell injection. Urine was collected on the days indicated beginning at 22 days after cell injection (8 days after the start of ATR-101 or vehicle administration), and the cortisol levels were determined using a DetectX® cortisol assay kit (Arbor Assays).
To investigate the potential therapeutic benefit of ATR-101 in the establishment of ACC xenografts in a mouse model of ACC, ACC-derived cell line H295R was injected in SCID mice (6-7 week males). 1×10^8 cells in 0.2 ml DMEM were injected under the skin in the right dorsal flank regions of SCID mice. Two weeks after injection, the mice were randomized in groups of 10. ATR-101 was administered at 700 mg/kg/day for 4 days, followed by 300 mg/kg/day by oral gavage in 10% DMSO, 0.5% CMC, 0.9% NaCl, 0.2% Tween, pH 3. Control mice were administered vehicle. The tumor size was measured using calipers three times a week. Urinary cortisol was measured at various time points after start of ATR-101 or vehicle administration.

Data set [3] in a line: Tissue distribution of ATR-101 in dogs. It is filed as in vivo. The procedure:
as §1

In the case of `CC(C)c1cccc(C(C)C)c1NC(=O)NCC1(c2ccc(N(C)C)cc2)CCCC1` [ATR-101, N-(2,6-bis(1-methylethyl)phenyl)-N′-((1-(4-(dimethylamino)phenyl)cyclopentyl)-methyl)urea hydrochloride], the “cortisol during recovery period” value with ACTH-stimulated cortisol (days 42 and 56, drug-free recovery) was “reversal of the cortisol-suppressive effects”. Moreover, the “ACTH responses (plasma cortisol)” value in the data set on ACTH-stimulated cortisol (male and female dogs, 3 mg/kg/day and 30 mg/kg/day, from day 7 through day 14 and day 28) is reported as “Marked drug-associated decreases”. The Kp at 7 days in data set [1] (adrenal gland (relative to plasma), read-out: adrenal gland concentration relative to plasma) is approximately 2; in data set [1] (ovary (relative to plasma), read-out: ovary concentration relative to plasma), approximately 1.4. For the same compound, the blood-brain barrier crossing result in data set [1] (rats) and in data set [3] (dogs) was “does not appear to cross the blood-brain barrier” in each case. For the same compound, the “level in cerebral spinal fluid (CSF)” value in data set [1] (rats, likely contamination of CSF with blood) is “Low levels”. Further, in the data set on H295R cells (64 μM, 4 hours), the “reduction of ATP luminescence signal” value is listed as “about 90%”. In addition, the “increase by MβCD of ATR-101 concentration required for half-maximal depletion of ATP levels” value in the data set with H295R cells (2 mM MβCD) is on record as “more than 4 fold”. Moreover, in the data set on H295R cells (2 mM MβCD, up to 32 μM ATR-101), the “ATP levels of cells cultured in presence of MβCD” value is “unaffected”. Besides, the EC50 with H295R cells (Homo sapiens, NCI-H295R, 4 hours, read-out: concentration with half-maximal effect on ATP luminescence signal) is 16 µM. Further, the “ATP level in cells cultured with MβCD complexed with cholesterol” value in the data set with H295R cells (MβCD (2 mM) complexed with cholesterol) was “further reduction”. Also, the “average urinary cortisol levels versus vehicle” value in data set [2] is listed as “lower”. Moreover, the “adrenal gland concentration compared with plasma” value in data set [3] (female dogs, 3 mg/kg/day for 7 days, N=3) is “similar”.
